This is an account of results in publication PMC10142505, “Synthesis, Evaluation of Enzyme Inhibition and Redox Properties of Potential Dual COX-2 and 5-LOX Inhibitors” (Pharmaceuticals, 2023).

Each structure is given as a SMILES string.

For orientation: IC50 means the concentration needed to halve the response being measured.

The target of this test is T1, COX-2 human recombinant enzyme (Homo sapiens, UniProt P35354).
T1 construct: purchased Abcam ab283401
T1 sequence (P35354 18-604): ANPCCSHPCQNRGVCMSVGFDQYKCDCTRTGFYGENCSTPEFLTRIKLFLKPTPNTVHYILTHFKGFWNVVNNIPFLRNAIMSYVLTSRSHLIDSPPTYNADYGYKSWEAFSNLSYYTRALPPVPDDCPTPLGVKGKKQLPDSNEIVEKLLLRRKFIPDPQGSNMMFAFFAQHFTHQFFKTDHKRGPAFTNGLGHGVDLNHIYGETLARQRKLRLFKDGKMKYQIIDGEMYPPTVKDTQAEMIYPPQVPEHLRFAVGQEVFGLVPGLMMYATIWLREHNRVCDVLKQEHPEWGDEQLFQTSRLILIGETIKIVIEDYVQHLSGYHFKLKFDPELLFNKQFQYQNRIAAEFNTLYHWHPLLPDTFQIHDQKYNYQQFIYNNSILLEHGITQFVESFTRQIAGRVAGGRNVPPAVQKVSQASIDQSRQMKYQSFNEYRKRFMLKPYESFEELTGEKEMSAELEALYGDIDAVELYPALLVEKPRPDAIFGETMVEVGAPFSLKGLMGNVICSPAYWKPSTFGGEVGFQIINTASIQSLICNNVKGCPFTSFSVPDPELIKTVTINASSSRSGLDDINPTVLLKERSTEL
Put plainly: Fluorometric COX-2 inhibitor screening kit. It counts as biochemical. As to conditions: IC50 ± standard error. The protocol:
The COX-1 and COX-2 inhibitory activates of the synthesized compounds were tested using fluorometric COX-1 (Catalog Number: ab204698) and COX-2 (Catalog Number: ab283401) inhibitor screening kits (Abcam, United Kingdom). These assays are based on the fluorometric detection of Prostaglandin G2, generated by the COX enzyme. The experiment was conducted according to the manufacturer’s instructions. Each assay consists of a COX Assay Buffer, COX Probe (in DMSO), COX Cofactor (in DMSO), arachidonic acid and NaOH. The COX-1 inhibitor screening kit contains COX-1 ovine enzyme and COX-1 inhibitor SC560 (dissolved in DMSO), while the COX-2 inhibitor screening kit contains COX-2 human recombinant enzyme and COX-2 inhibitor Celecoxib (dissolved in DMSO). The tested compounds were dissolved in DMSO and further diluted five times with the COX Assay Buffer. The Inhibitor Control (IC) was prepared by adding 2 µL of COX-1/COX-2 inhibitor and 8 µL of COX Assay Buffer into assigned wells, while the Solvent Control (SC) was prepared by adding 2 µL of DMSO and 8 µL of COX Assay Buffer into assigned wells and the Sample (S) and Enzyme Control (EC) were prepared by adding 10 µL of diluted tested compounds or COX Assay Buffer into assigned wells. The Reaction Master Mix (COX Assay Buffer, COX Probe, Diluted COX Cofactor and COX-1/COX-2 Enzyme) was prepared according to instructions and 80 µL of the Reaction Master Mix was added into each well. Meanwhile, a diluted arachidonic acid/NaOH solution was prepared and 10 µL was added into each well using a multi-channel pipette to initiate all the reactions at the same time. […] The EC, SC, IC and tested compounds at all concentrations were analyzed in triplicates. Two points (T1 and T2) in the linear range of the plot were chosen and corresponding fluorescence values (RFU1 and RFU2) were obtained. The slope for all samples was calculated by dividing ΔRFU (RFU2-RFU1) by time Δt (T2−T1). The percentage of inhibition was calculated as follows: % Relative Inhibition=Slope of EC−Slope of S/Slope of EC∗100
Fluorescence measurements were performed on a BioTek Synergy LX multi-mode reader (Winooski, VT, USA).
Regarding `COc1ccc2c(c1)c(CNC(=O)NO)c(C)n2C(=O)c1ccc(Cl)cc1` [Compound 1, N’-hydroxy-N-[(1-(4-chlorobenzoyl)-5-methoxy-2-methyl-3-indolyl)methyl]urea], the IC50 stood at 18.3 ± 2.17 µM. The result for `CC(NC(=O)NO)c1ccc(-c2ccccc2)c(F)c1` (stereo not shown) [Compound 2] reads 6.72 ± 0.79 µM; that for `O=C(NO)NCc1ccccc1Nc1c(Cl)cccc1Cl` [Compound 3, N’-hydroxy-N-[(2-(2,6-dichloroanilino)phenyl)methyl]urea], 5.26 ± 0.34 µM; that for `COC(=O)C(Cc1c[nH]cn1)NC(=O)c1cc(C(C)(C)C)c(O)c(C(C)(C)C)c1` (stereo not shown) [Compound 4, 2-(3,5-di-tert-butyl-4-hydroxy-benzoylamino)-3-(1H-imidazol-4-yl)-propionic acid methyl ester], > 100 µM.

`COC(=O)CNC(=O)c1cc(C(C)(C)C)c(O)c(C(C)(C)C)c1` [Compound 5, (3,5-di-tert-butyl-4-hydroxy-benzoylamino)-acetic acid methyl ester]: the IC50 was 10.6 ± 0.8 µM. As for `C=CCNC(=O)c1cc(C(C)(C)C)c(O)c(C(C)(C)C)c1` [Compound 6, N-allyl-3,5-di-tert-butyl-4-hydroxy-benzamide], the figure is 6.89 ± 0.83 µM. The result for `C#CCNC(=O)c1cc(C(C)(C)C)c(O)c(C(C)(C)C)c1` [Compound 7, 3,5-di-tert-butyl-4-hydroxy-N-prop-2-ynyl-benzamide] reads > 100 µM; that for `CCOc1ccccc1NC(=O)N(C)C` [Compound 8, 3-(2-ethoxy-phenyl)-1,1-dimethyl-urea], > 100 µM. The result for `CN(C)C(=O)Nc1ccccc1C(=O)O` [Compound 9, 2-(3,3-dimethyl-ureido)-benzoic acid] reads > 100 µM; that for `CCOc1ccccc1NC(=O)Nc1ccc([N+](=O)[O-])cc1` [Compound 10, 1-(2-ethoxy-phenyl)-3-(4-nitro-phenyl)-urea], > 100 µM; that for `CC(=O)N(O)C(C)c1ccc(CC(C)C)cc1` (stereo not shown) [Compound 11], 36.2 ± 3.08 µM. Turning to `COc1ccc2cc(C(C)N(O)C(C)=O)ccc2c1` (stereo not shown) [Compound 12, N-hydroxy-N-[1-(6-methoxy-naphthalen-2-yl)-ethyl]-acetamide], the IC50 was 83.4 ± 4.37 µM. As for `CC(C)(C)c1cc(C=C2SC(=S)N(N)C2=O)cc(C(C)(C)C)c1O` [Compound 13, 3-amino-5-(3,5-di-tert-butyl-4-hydroxy-benzylidene)-2-thioxo-thiazolidin-4-one], the figure is > 100 µM.
